Results: US8933071B2, “Dimethyl fasudil for inducing polyploidization of megakaryocytes and for treating blood and bone marrow diseases and disorders” (Northwestern University, priority 2008, dated 2015)

Tests used:
[1] = tested on: CMK (human megakaryocytic leukemia) cells; assay: High throughput screen for inducers of megakaryocyte polyploidization; assay type: cell-based; conditions: 10 μM, 72 hours, Hoescht stain, high content imaging
Method: In collaboration with the Broad Institute, a high throughput screen for small molecules was conducted to identify small molecules that preferentially induce polyploidization or differentiation of megakaryocytes. We screened 10,000 compounds from the Broad's extensive collection of small molecules (including known bioactives, kinase and HDAC inhibitors, and natural products) to identify inducers of megakaryocyte polyploidization. The screen was performed in the following manner: 1) 4,000 CMK (human megakaryocytic leukemia) cells were plated into each well of a 384-well plate, 2) 100 n1 of compounds (yielding a final concentration of 10 μM) were pinned into the wells, 3) plates were incubated at 37° C. for 72 hours, 4) cells were fixed and stained with Hoescht, and 5) plates were imaged using an ImageXpressMICRO high content imager with 20× objective. Nine images per well were collected. 6) Data were analyzed using both MetaXpress software and “Cell Profiler,” software designed at MIT and the Broad Institute. Seventy-two plates containing duplicates of nearly 10,000 small molecules were screened.

[2] = tested on: non-megakaryocytic cells (CD41-negative); assay: Effect on non-megakaryocytic (CD41-negative) cells in human CD34+ culture; assay type: cell-based; conditions: CD41-negative population
Method: FIG. 4 illustrates that DMF induces polyploidization of normal human megakaryocytes and that its activity is restricted to the CD41+ population. Human CD34+ cells were cultured with TPO for 12 days and then fixed and stained with DAPI. DMSO or DMF were added to the culture after 9 days. DNA content was then assessed by flow cytometry. Numbers above the bar indicate % of cells ≧8N.
In collaboration with the Broad Institute, a high throughput screen for small molecules was conducted to identify small molecules that preferentially induce polyploidization or differentiation of megakaryocytes. We screened 10,000 compounds from the Broad's extensive collection of small molecules (including known bioactives, kinase and HDAC inhibitors, and natural products) to identify inducers of megakaryocyte polyploidization. The screen was performed in the following manner: 1) 4,000 CMK (human megakaryocytic leukemia) cells were plated into each well of a 384-well plate, 2) 100 n1 of compounds (yielding a final concentration of 10 μM) were pinned into the wells, 3) plates were incubated at 37° C. for 72 hours, 4) cells were fixed and stained with Hoescht, and 5) plates were imaged using an ImageXpressMICRO high content imager with 20× objective. Nine images per well were collected. 6) Data were analyzed using both MetaXpress software and “Cell Profiler,” software designed at MIT and the Broad Institute. […]

[3] = tested on: erythroid colonies in human MPD bone marrow cultures; assay type: cell-based; conditions: ET patient bone marrow, 14 days
Method: (§1) Referring to FIG. 5, bone marrow mononuclear cells from a patient with ET were cultured with two doses of DMF for 10 days.
MPDs Patient Specimens. Mononuclear cells from bone marrow of patients were obtained by informed consent from patients at Northwestern Feinberg School of Medicine. Mononuclear cells were separated from marrow with Ficoll (GE Healthcare life sciences, Piscataway, N.J.) and resuspended in IMDM (Iscove's Modified Dulbecco's Media) media without serum. The cells were stained with 0.4% trypan blue solution for 5 minutes and live cells were counted. Live cells were assayed in CFU-MK (“Colony forming units-megakaryocytes”) and BFU-E (“Burst forming unit-erythroid”) assays as well as in liquid culture.
BFU-E (Burst forming unit-erythroid) assay. Live ET bone marrow cells were added to MethoCult media (4436, StemCell Technologies, Vancouver, BC, Canada) with recombinant human EPO (erythropoeitin, 3 U/mL), recombinant human SCF (stem cell factor, 50 ng/mL), recombinant human GM-CSF (granulocyte macrophage colony-stimulating factor, 10 ng/mL) and recombinant human IL-3 (10 ng/mL). […] Cells were plated in duplicate in 35 mm culture dishes according the manufacturer's protocol. On the 14th day, red colonies composed of hemoglobinized erythroblasts were identified and scored.

[4] = tested on: CD41+ megakaryocytes obtained from human MPD bone marrow; assay type: cell-based; conditions: ET patient bone marrow, TPO, 5 days
Method: Two lead compounds were tested on samples from both MPD (myeloproliferative disease) patients and AMKL (acute megakaryocytic leukemia) patients. […] Referring to FIG. 8, bone marrow samples from patients with AMKL were cultured in DMSO (control) or DMF (at 5 μM) for 14 days. Colonies were stained with anti-CD41 antibody and visualized by microcopy (not shown). Total numbers of CD41+ megakaryocyte colonies are shown.
(§2) Mononuclear cells from bone marrow of patients were obtained by informed consent from patients at Northwestern Feinberg School of Medicine. Mononuclear cells were separated from marrow with Ficoll (GE Healthcare life sciences, Piscataway, N.J.) and resuspended in IMDM (Iscove's Modified Dulbecco's Media) media without serum. The cells were stained with 0.4% trypan blue solution for 5 minutes and live cells were counted. Live cells were assayed in CFU-MK (“Colony forming units-megakaryocytes”) and BFU-E (“Burst forming unit-erythroid”) assays as well as in liquid culture.
Marrow cells from ET patients were also cultured in RPMI with 10% FBS in the presence of recombinant human TPO (thrombopoeitin, 50 ng/ml). […] DNA content of both CD41+ cells and CD41-negative cells was analyzed by utilizing a BD LSRII flow cytometer (BD Biosciences San Jose, Calif.).

[5] = tested on: CD41-cells (all other cell types); assay type: cell-based, human; conditions: ET patient bone marrow, 5 days
Method: as §1, §2
Liquid culture. Marrow cells from ET patients were also cultured in RPMI with 10% FBS in the presence of recombinant human TPO (thrombopoeitin, 50 ng/ml). […] After 5 days, the cells were collected and stained with APC (allophycocyanin) labeled anti-human CD41 antibody (BD Biosciences San Jose, Calif.). The cells were then stained overnight with 1 μg/mL 4′,6-diamidinio-2-phenylindole (DAPI). DNA content of both CD41+ cells and CD41-negative cells was analyzed by utilizing a BD LSRII flow cytometer (BD Biosciences San Jose, Calif.).

[6] = tested on: 6133/MPL megakaryocytic leukemia cells; assay: 6133/MPL transplant model of AMKL, oral gavage treatment; assay type: in vivo, C57B1/6 mice; conditions: for lifespan: from day 3
Method: FIG. 10 illustrates that DMF prevents AMKL in vivo. N=7 per group. […] transplant recipients were treated with two daily doses of vehicle, 33 mg/kg DMF, or 66 mg/kg DMF by oral gavage. Treatment with 33 or 66 mg/kg DMF led to statistically significant extensions in leukemia free survival (p=0.003 and 0.004 respectively).
To determine whether polyploidization-inducing agents can serve as new therapies for AMKL, DMF was assessed in an animal model for AMKL. To this end, an animal model of AMKL was developed by transplanting 6133/MPL megakaryocytic leukemia cells into sub-lethally irradiated recipient C57B1/6 mice. The parental 6133 cell line, which is dependent upon TPO for survival, was derived from a leukemic mouse that expressed the AMKL t(1:22) fusion protein OTT-MAL by knock-in gene targeting (35). 6133 cells were then transduced with a MPLW515L expressing retrovirus, and stable TPO-independent clones were isolated. […] The disease was characterized by massive infiltration of CD41^+ cells in the bone marrow and spleen.
After 3 days, the mice were treated with twice daily doses of DMF for 10 days. Seven mice were utilized per experimental condition. […] With 66 mg/kg nearly 50% of the mice remained disease free for at least 70 days. In contrast, all of mice fed only water (vehicle) died of leukemia by 20 days.
C57BL/6 mice (purchased from the Jackson Laboratory, Bar Harbor, Me.) were sub-lethally irradiated with 600 rads. Mice were then anesthetized by an IP injection of mixture of Ketamine (100 mg/kg) and xylazine (5 mg/kg) 2 hours after irradiation. C57/B16 mice were intravenously injected with 1×10^6 6133/MPL cells, which were labeled with green fluorescent protein (GFP). Two different doses of DMF (33 mg/kg or 66 mg/kg) or water were administered to mice by oral gavage twice daily (b.i.d.) starting on the 3rd day after transplantation. For pre-treatment model, 6133/MPL cells were incubated with 5 μM DMF or DMSO for 24 hours. Live cells treated with DMF or […] were separated with Ficoll and transplanted into sub-lethally irradiated mice. Development of disease was assessed with presence of GFP-positive cells in the peripheral blood by FACS and by monitoring the health and body weight of the animals. Mice were sacrificed based on a protocol that includes assessment of morbidity by >20% loss of weight, severe anemia, scruffy appearance, and/or severe lethargy.

dimethylfasudil [DMF]
positive in polyploidization screen [1]: positives | effect on non-megakaryocytic (CD41-negative) cells [2]: no effect | formation of aberrant erythroid colonies [3]: potently blocked formation | polyploidization of bone marrow megakaryocytes [4]: potently induced polyploidization | effect on CD41-cells (all other cell types) [5]: no effect | leukemia free survival p ([6]; 33 mg/kg by oral gavage vs vehicle): 0.003 | lifespan ([6]; 33 mg/kg twice daily oral gavage for 10 days): significant extensions in lifespan | leukemia free survival p ([6]; 66 mg/kg by oral gavage vs vehicle): 0.004 | mice remaining disease free for at least 70 days ([6]; 66 mg/kg twice daily oral gavage): ~50% | lifespan ([6]; 66 mg/kg twice daily oral gavage for 10 days): significant extensions in lifespan | long-term survival of mice ([6]; feeding to mice): up to 50%
